The values below come from the Kinase Knowledgebase extract (Sharma et al. 2016).

Experiment [1] deals with PIK3CA (human) (UniProt P42336). Description: Inhibition of PIK3CA Kinase Activity.
Experiment [2] concerns the target PIK3CA (human), P42336 [Antiproliferation of PI3K Mutated BT20 Cells]. Put plainly: Cell-Based Assay.

Sequence of PIK3CA (human) (P42336 whole entry, looked up): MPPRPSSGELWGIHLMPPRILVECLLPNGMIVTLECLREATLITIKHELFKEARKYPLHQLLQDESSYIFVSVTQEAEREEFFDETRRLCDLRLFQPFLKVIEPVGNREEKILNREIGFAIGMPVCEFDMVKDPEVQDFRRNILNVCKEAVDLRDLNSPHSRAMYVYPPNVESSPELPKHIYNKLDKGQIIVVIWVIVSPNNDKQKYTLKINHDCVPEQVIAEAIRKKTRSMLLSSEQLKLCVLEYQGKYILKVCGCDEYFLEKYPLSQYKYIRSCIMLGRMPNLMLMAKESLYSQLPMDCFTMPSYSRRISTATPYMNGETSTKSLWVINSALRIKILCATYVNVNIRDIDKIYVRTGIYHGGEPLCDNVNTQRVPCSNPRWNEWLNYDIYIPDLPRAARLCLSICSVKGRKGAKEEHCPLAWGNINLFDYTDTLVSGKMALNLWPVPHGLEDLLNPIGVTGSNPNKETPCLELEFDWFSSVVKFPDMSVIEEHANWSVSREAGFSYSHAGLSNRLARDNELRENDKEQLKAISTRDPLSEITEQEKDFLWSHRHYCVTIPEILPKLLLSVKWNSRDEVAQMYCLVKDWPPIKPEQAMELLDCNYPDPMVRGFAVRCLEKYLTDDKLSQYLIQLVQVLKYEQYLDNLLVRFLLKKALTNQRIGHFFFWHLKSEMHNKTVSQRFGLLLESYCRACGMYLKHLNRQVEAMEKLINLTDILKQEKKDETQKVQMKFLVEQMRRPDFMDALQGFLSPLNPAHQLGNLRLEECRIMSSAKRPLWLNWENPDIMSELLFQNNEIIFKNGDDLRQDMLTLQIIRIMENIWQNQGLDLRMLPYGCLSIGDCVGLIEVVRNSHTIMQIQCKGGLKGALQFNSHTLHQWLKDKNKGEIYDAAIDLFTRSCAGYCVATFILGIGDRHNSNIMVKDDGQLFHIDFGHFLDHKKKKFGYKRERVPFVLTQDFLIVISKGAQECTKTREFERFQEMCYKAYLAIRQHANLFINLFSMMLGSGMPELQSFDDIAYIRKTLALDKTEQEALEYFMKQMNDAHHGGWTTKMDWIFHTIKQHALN
Sequence of PIK3CA (human), P42336 [Antiproliferation of PI3K Mutated BT20 Cells] (P42336 whole entry, looked up, change not shown): as the sequence (P42336 whole entry, looked up) above

Turning to `Cc1nc(N)nc2c1cc(-c1cn[nH]c1)c(=O)n2C1CCOC1` (stereo unspecified), the IC50 (commonly the concentration that gives 50% inhibition) in experiment [1] came out at 20 nM; in experiment [2] it was 25.8 nM.
In the same order, the values of `CCNc1nc(C)c2cc(-c3cccnc3N)c(=O)n(C3CCCC3)c2n1` are 3400 nM and 7980 nM.
The compound `COc1ccc(-c2cc3c(C)nc(N)nc3n([C@H]3CC[C@H](OCC(N)=O)CC3)c2=O)cn1` gave an IC50 in experiment [2] of 19.3 nM.
For the compound `Cc1nc(N)nc2c1cc(-c1cnn(CC(F)F)c1)c(=O)n2C1CCCC1`, the figures for the IC50 in experiment [1] and in experiment [2] were 12 nM and 397 nM, respectively.
With `CNc1nc(C)c2cc(-c3cnc4[nH]ccc4c3)c(=O)n(CC3CCOC3)c2n1` (stereo unspecified), the IC50 in experiment [1] was determined as 1.6 nM; in experiment [2], 13.5 nM.
In the same order, the values of `COc1ncc(-c2cc3c(C)nc(N)nc3n(C3CCOCC3)c2=O)cn1` are 45 nM and 26.7 nM.
As to `Cc1nc(N)nc2c1cc(Br)c(=O)n2[C@H]1CC[C@@H](O)CC1`, the IC50 was 130 nM in experiment [1] and 228 nM in experiment [2].
The matching figures for `Cc1nc(N)nc2c1cc(-c1cccc(O)c1)c(=O)n2C1CCCC1`: 0.524 nM and 4.84 nM.
The matching figures for `CCN(CC)C(=O)OCn1cc(-c2cc3c(C)nc(N)nc3n(C(C)C)c2=O)nn1`: 3300 nM and 10000 nM.
In the same order, the values of `COc1ncc(-c2cc3c(C)nc(N)nc3n([C@H]3C[C@H](OCCO)C3)c2=O)cn1` are 6.65 nM and 93.5 nM.
Take `CNc1nc(C)c2cc(-c3cnn(CC(F)F)c3)c(=O)n(C3CCCC3)c2n1`: the IC50 in experiment [1] worked out at 46 nM; in experiment [2], 10000 nM.
In the same order, the values of `Cc1nc(N)nc2c1cc(-c1cn[nH]c1)c(=O)n2[C@H]1CC[C@H](O)CC1` are 6.7 nM and 169 nM.
`COc1ncc(-c2cc3c(C)nc(N)nc3n([C@H]3CC[C@@H](OCC(N)=O)CC3)c2=O)cn1` registered an IC50 in experiment [2] of 82.9 nM.
On to `CCNc1nc(C)c2cc(CCC(=O)O)c(=O)n(C3CCCC3)c2n1`, for which the IC50 turned out to be 54 nM in experiment [1] and 10000 nM in experiment [2].
In the same order, the values of `Cc1nc(N)nc2c1cc(-c1cnc3[nH]ccc3c1)c(=O)n2C1CN(C(=O)OC(C)(C)C)C1` are 38 nM and 256 nM.
In the same order, the values of `CCNc1nc(C)c2cc(-c3ccc(O)c(OC)c3)c(=O)n(C3CCCC3)c2n1` are 3.08 nM and 26.3 nM.
In the same order, the values of `Cc1nc(N)nc2c1cc(-c1cnn(C)c1)c(=O)n2[C@H]1CC[C@H](OCCO)CC1` are 22.3 nM and 226 nM.
For `CO[C@H]1CC[C@H](n2c(=O)c(-c3cc[nH]n3)cc3c(C)nc(N)nc32)CC1`, the IC50 came to 9.5 nM in experiment [1] and 17.2 nM in experiment [2].
The matching figures for `Cc1nc(N)nc2c1cc(C#N)c(=O)n2C1CCC1`: 95 nM and 2090 nM.
`COc1cccc(-c2cc3c(C)nc(N)nc3n(C3CCCC3)c2=O)c1`: the IC50 in experiment [1] came to 168 nM; in experiment [2] it was 622 nM.
The matching figures for `CNc1nc(C)c2cc(-c3ccc(OC)nc3)c(=O)n(CC3CCOC3)c2n1` (stereo unspecified): 4.6 nM and 45.6 nM.
As for `COc1ccc(-c2cc3c(C)nc(N)nc3n(CC(F)(F)F)c2=O)cn1`, the IC50 in experiment [1] was determined as 130 nM; in experiment [2] it was 262 nM.
For the compound `CCNc1nc(C)c2cc(-c3cccc(OC)c3)c(=O)n(C3CCCC3)c2n1`, the IC50 in experiment [1] stood at 792 nM; in experiment [2], 1390 nM.
In the same order, the values of `Cc1nc(N)nc2c1cc(-c1ccc(N(C)C)nc1)c(=O)n2[C@H]1CC[C@H](OCCO)CC1` are 9.28 nM and 12.1 nM.
As for `Cc1nc(N)nc2c1cc(-c1ccncc1)c(=O)n2Cc1ccc(Cl)cc1`, in experiment [1], the IC50 was 4900 nM.
Take `COc1ncc(-c2cc3c(C)nc(N)nc3n([C@H]3CC[C@H](OCCO)CC3)c2=O)cn1`: the values for the IC50 in experiment [1] and in experiment [2] were 2.2 nM and 38.9 nM, respectively.
The matching figures for `COc1ncc(-c2cc3c(C)nc(N)nc3n([C@H]3CC[C@H](OCCO)CC3)c2=O)cc1F`: 1.44 nM and 5.3 nM.
As to `COc1ccc(-c2cc3c(C)nc(N)nc3n([C@H]3CC[C@@H](O)CC3)c2=O)cn1`, in experiment [2], the concentration for half-maximal inhibition (IC50) turned out to be 19 nM.
On to `Cc1nc(N)nc2c1cc(-c1cnc3ccccc3c1)c(=O)n2[C@H]1CC[C@H](O)CC1`, for which the figures for the IC50 in experiment [1] and in experiment [2] were 8.2 nM and 42 nM, respectively.
The matching figures for `COc1ccc(-c2cc3c(C)nc(N)nc3n(CCN)c2=O)cn1`: 340 nM and 4530 nM.
In the same order, the values of `Cc1nc(N)nc2c1cc(-c1cnn(CC(C)(C)O)c1)c(=O)n2C1CCCC1` are 89 nM and 101 nM.
`Cc1nc(N)nc2c1cc(-c1ccccc1)c(=O)n2Cc1ccc(Cl)cc1` returned an IC50 in experiment [1] of 1400 nM.
Consider `CCNc1nc(C)c2cc(CCCO)c(=O)n(C3CCCC3)c2n1`, for which the IC50 in experiment [1] came to 4 nM; in experiment [2], 2750 nM.
